{"source": "patent US8987195B2", "about": "(priority 2012, dated 2015)", "key": {"HCV genotype 1b replicon": {"system": "HCV genotype 1b replicon", "test": "HCV replicon assay, genotype 1b replicon EC50", "format": "cell-based, Hepatitis C virus", "conditions": "Hepatitis C virus, read-out: EC50 [gt-1b]", "method_in_brief": "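Potency comes from a four-parameter fit of signal as percent of DMSO control. Replicon-bearing cells were treated 24-48 hours with a compound dilution series in absence of G418, and replicon RNA was quantified normalized to cyclophilin A RNA, or luciferase read.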"}, "[1]": {"target": "HCV NS3/4A protease genotype 1b (Hepatitis C virus genotype 1b, UniProt P26663)", "test": "HCV NS3/4A protease time-resolved fluorescence (TRF) assay, Ki against genotype 1b", "format": "biochemical", "method_in_brief": "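Ki was converted from fitted IC50 using IC50=Ki(1+[S]/KM) and 25 nM substrate. Protease (genotype 1b 0.2 nM, A156T 0.4 nM, 3a 0.025 nM) and compound were pre-mixed 30 min in pH 7.5 HEPES/NaCl/glycerol/DTT buffer. Cleavage then proceeded 2.5 h at room temperature, detected by time-resolved europium fluorescence (340/615 nm).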"}, "[2]": {"conditions": "IC50 [gt-1b] (nM), NS3/4A genotype 1b, enzyme 0.2 nM"}, "[3]": {"conditions": "IC50 [gt-1b] (nM), NS3/4A genotype 1b, enzyme 0.2 nM, K+ salt"}, "[4]": {"conditions": "IC50 [gt-1b], NS3/4A protease TRF assay, genotype 1b enzyme 0.2 nM"}}, "note": "Where two headings read alike, the source gives them in different places."}
{"compound": "Cc1nc2ccc(OCC(F)(F)F)cc2c2c1O[C@]1(CC2)C[C@H]2C(=O)N[C@]3(C(=O)NS(=O)(=O)C4(C)CC4)C[C@H]3/C=C\\CCCCC[C@H](NC(=O)OC(C)(C(F)(F)F)C(F)(F)F)C(=O)N2C1", "note": "[Example 308, 1,1,1,3,3,3-hexafluoro-2-methylpropan-2-yl [(2R,6S,12Z,13aS,14aR,16aS)-5′-methyl-14a-{[(1-methylcyclopropyl)sulfonyl]carbamoyl}-5,16-dioxo-9′-(2,2,2-trifluoroethoxy)-1,1′,2′,5,6,7,8,9,10,11,13a,14,14a,15,16,16a-hexadecahydrospiro[cyclopropa[e]pyrrolo[1,2-a][1,4]diazacyclopentadecine-2,3′-pyrano[2,3-c]quinolin]-6-yl]carbamate]", "values": [{"measurement": "EC50", "setting": "HCV genotype 1b replicon; genotype 1b replicon", "value": 416, "unit": "nM"}, {"measurement": "IC50", "setting": "[1]; [2]", "value": 0.006, "unit": "nM"}]}
{"compound": "COc1ccc2nc(C)c3c(c2c1)[C@H](F)C[C@]1(C[C@H]2C(=O)N[C@]4(C(=O)NS(=O)(=O)C5(C)CC5)C[C@H]4/C=C\\CCCCC[C@H](NC(=O)O[C@H](C)C(C)C)C(=O)N2C1)O3", "note": "[Example 356, (2R)-3-methylbutan-2-yl [(1′R,2S,6S,12Z,13aS,14aR,16aS)-1′-fluoro-9′-methoxy-5′-methyl-14a-{[(1-methylcyclopropyl)sulfonyl]carbamoyl}-5,16-dioxo-1,1′,2′,5,6,7,8,9,10,11,13a,14,14a,15,16,16a-hexadecahydrospiro[cyclopropa[e]pyrrolo[1,2-a][1,4]diazacyclopentadecine-2,3′-pyrano[2,3-c]quinolin]-6-yl]carbamate]", "values": [{"measurement": "EC50", "setting": "HCV genotype 1b replicon; genotype 1b replicon, K+ salt", "value": 3.73, "unit": "nM"}, {"measurement": "IC50", "setting": "[1]; [3]", "value": 0.012, "unit": "nM"}]}
{"compound": "COc1ccc2nc(C(F)F)c3c(c2c1)CC[C@]1(C[C@H]2C(=O)N[C@]4(C(=O)NS(=O)(=O)C5(C)CC5)C[C@H]4/C=C\\CCCCC[C@H](NC(=O)OCC(C)C)C(=O)N2C1)O3", "note": "[Example 440, 2-methylpropyl [(2R,6S,12Z,13aS,14aR,16aS)-5′-(difluoromethyl)-9′-methoxy-14a-{[(1-methylcyclopropyl)sulfonyl]carbamoyl}-5,16-dioxo-1,1′,2′,5,6,7,8,9,10,11,13a,14,14a,15,16,16a-hexadecahydrospiro[cyclopropa[e]pyrrolo[1,2-a][1,4]diazacyclopentadecine-2,3′-pyrano[2,3-c]quinolin]-6-yl]carbamate]", "values": [{"measurement": "EC50", "setting": "HCV genotype 1b replicon; HCV replicon, genotype 1b, K+ salt", "value": 1.98, "unit": "nM"}, {"measurement": "IC50", "setting": "[1]; IC50 [gt-1b], NS3/4A protease TRF assay, genotype 1b enzyme 0.2 nM, K+ salt", "value": 0.016, "unit": "nM"}]}
{"compound": "CC(C)(C)OC(=O)N[C@H]1CCCCC/C=C\\C2CC2(C(=O)NS(=O)(=O)C2(C)CC2)NC(=O)C2C[C@]3(CCc4c(c(C5CC5)nc5c(F)cccc45)O3)CN2C1=O", "note": "(stereo partly drawn) [Example 69, tert-butyl [(2R,6S,12Z)-5′-cyclopropyl-7′-fluoro-14a-{[(1-methylcyclopropyl)sulfonyl]carbamoyl}-5,16-dioxo-1,1′,2′,5,6,7,8,9,10,11,13a,14,14a,15,16,16a-hexadecahydrospiro[cyclopropa[e]pyrrolo[1,2-a][1,4]diazacyclopentadecine-2,3′-pyrano[2,3-c]quinolin]-6-yl]carbamate]", "values": [{"measurement": "EC50", "setting": "HCV genotype 1b replicon; genotype 1b replicon, K+ salt", "value": 0.82, "unit": "nM"}, {"measurement": "IC50", "setting": "[1]; [3]", "value": 0.012, "unit": "nM"}]}
{"compound": "COc1ccc2nc(C(C)C)c3c(c2c1)CC[C@]1(C[C@H]2C(=O)N[C@]4(C(=O)NS(=O)(=O)C5(C)CC5)C[C@H]4/C=C\\CCCCC[C@H](NC(=O)OC4(C)CC4)C(=O)N2C1)O3", "note": "[Example 165, 1-methylcyclopropyl [(2R,6S,12Z,13aS,14aR,16aS)-9′-methoxy-14a-{[(1-methylcyclopropyl)sulfonyl]carbamoyl}-5,16-dioxo-5′-(propan-2-yl)-1,1′,2′,5,6,7,8,9,10,11,13a,14,14a,15,16,16a-hexadecahydrospiro[cyclopropa[e]pyrrolo[1,2-a][1,4]diazacyclopentadecine-2,3′-pyrano[2,3-c]quinolin]-6-yl]carbamate]", "values": [{"measurement": "EC50", "setting": "HCV genotype 1b replicon; genotype 1b replicon", "value": 1.39, "unit": "nM"}, {"measurement": "IC50", "setting": "[1]; [2]", "value": 0.005, "unit": "nM"}]}
{"compound": "COc1ccc2nc(C(C)C)c3c(c2c1)C(F)(F)C[C@]1(C[C@H]2C(=O)N[C@]4(C(=O)NS(=O)(=O)C5(C)CC5)C[C@H]4/C=C\\CCCCC[C@H](NC(=O)OC(C)(C)C(F)(F)F)C(=O)N2C1)O3", "note": "[Example 299, 1,1,1-trifluoro-2-methylpropan-2-yl [(2S,6S,12Z,13aS,14aR,16aS)-1′,1′-difluoro-9′-methoxy-14a-{[(1-methylcyclopropyl)sulfonyl]carbamoyl}-5,16-dioxo-5′-(propan-2-yl)-1,1′,2′,5,6,7,8,9,10,11,13a,14,14a,15,16,16a-hexadecahydrospiro[cyclopropa[e]pyrrolo[1,2-a][1,4]diazacyclopentadecine-2,3′-pyrano[2,3-c]quinolin]-6-yl]carbamate]", "values": [{"measurement": "EC50", "setting": "HCV genotype 1b replicon; genotype 1b replicon, K+ salt", "value": 6.37, "unit": "nM"}, {"measurement": "IC50", "setting": "[1]; [3]", "value": 0.02, "unit": "nM"}]}
{"compound": "CCCOC(=O)N[C@H]1CCCCC/C=C\\[C@@H]2C[C@@]2(C(=O)NS(=O)(=O)C2(C)CC2)NC(=O)[C@@H]2C[C@]3(CCc4c(c(C(F)F)nc5ccccc45)O3)CN2C1=O", "note": "[Example 325, propyl [(2R,6S,12Z,13aS,14aR,16aS)-5′-(difluoromethyl)-14a-{[(1-methylcyclopropyl)sulfonyl]carbamoyl}-5,16-dioxo-1,1′,2′,5,6,7,8,9,10,11,13a,14,14a,15,16,16a-hexadecahydrospiro[cyclopropa[e]pyrrolo[1,2-a][1,4]diazacyclopentadecine-2,3′-pyrano[2,3-c]quinolin]-6-yl]carbamate]", "values": [{"measurement": "EC50", "setting": "HCV genotype 1b replicon; genotype 1b replicon", "value": 3.23, "unit": "nM"}, {"measurement": "IC50", "setting": "[1]; [2]", "value": 0.013, "unit": "nM"}]}
{"compound": "COc1ccc2nc(C)c3c(c2c1)CC[C@]1(C[C@H]2C(=O)N[C@]4(C(=O)NS(=O)(=O)C5(C)CC5)C[C@H]4/C=C\\CCCCC[C@H](NC(=O)OCC(C)C)C(=O)N2C1)O3", "note": "[Example 142, 2-methylpropyl [(2R,6S,12Z,13aS,14aR,16aS)-9′-methoxy-5′-methyl-14a-{[(1-methylcyclopropyl)sulfonyl]carbamoyl}-5,16-dioxo-1,1′,2′,5,6,7,8,9,10,11,13a,14,14a,15,16,16a-hexadecahydrospiro[cyclopropa[e]pyrrolo[1,2-a][1,4]diazacyclopentadecine-2,3′-pyrano[2,3-c]quinolin]-6-yl]carbamate]", "values": [{"measurement": "EC50", "setting": "HCV genotype 1b replicon; genotype 1b replicon", "value": 1.14, "unit": "nM"}, {"measurement": "IC50", "setting": "[1]; [2]", "value": 0.004, "unit": "nM"}]}
{"compound": "CCc1nc2ccc(OC)cc2c2c1O[C@]1(CC2)C[C@H]2C(=O)N[C@]3(C(=O)NS(=O)(=O)C4(C)CC4)C[C@H]3/C=C\\CCCCC[C@H](NC(=O)c3c(C)n[nH]c3C)C(=O)N2C1", "note": "[Example 485, (2R,6S,12Z,13aS,14aR,16aS)-6-{[(3,5-dimethyl-1H-pyrazol-4-yl)carbonyl]amino}-5′-ethyl-9′-methoxy-N-[(1-methylcyclopropyl)sulfonyl]-5,16-dioxo-1,1′,2′,6,7,8,9,10,11,13a,14,15,16,16a-tetradecahydrospiro[cyclopropa[e]pyrrolo[1,2-a][1,4]diazacyclopentadecine-2,3′-pyrano[2,3-c]quinoline]-14a(5H)-carboxamide]", "values": [{"measurement": "EC50", "setting": "HCV genotype 1b replicon; HCV replicon, genotype 1b", "value": 0.306, "unit": "nM"}, {"measurement": "IC50", "setting": "[1]; [4]", "value": 0.005, "unit": "nM"}]}
{"compound": "CC(C)C1(OC(=O)N[C@H]2CCCCC/C=C\\[C@@H]3C[C@@]3(C(=O)NS(=O)(=O)C3(C)CC3)NC(=O)[C@@H]3C[C@]4(CCc5c(c(C6CC6)nc6c(F)cccc56)O4)CN3C2=O)CC1", "note": "[Example 167, 1-(propan-2-yl)cyclopropyl [(2R,6S,12Z,13aS,14aR,16aS)-5′-cyclopropyl-7′-fluoro-14a-{[(1-methylcyclopropyl)sulfonyl]carbamoyl}-5,16-dioxo-1,1′,2′,5,6,7,8,9,10,11,13a,14,14a,15,16,16a-hexadecahydrospiro[cyclopropa[e]pyrrolo[1,2-a][1,4]diazacyclopentadecine-2,3′-pyrano[2,3-c]quinolin]-6-yl]carbamate]", "values": [{"measurement": "EC50", "setting": "HCV genotype 1b replicon; genotype 1b replicon", "value": 1.88, "unit": "nM"}, {"measurement": "IC50", "setting": "[1]; [2]", "value": 0.02, "unit": "nM"}]}
{"compound": "CCc1nc2ccc(OC)cc2c2c1O[C@]1(CC2)C[C@H]2C(=O)N[C@]3(C(=O)NS(=O)(=O)C4(C)CC4)C[C@H]3/C=C\\CCCCC[C@H](NC(=O)c3cc[nH]n3)C(=O)N2C1", "note": "[Example 469, (2R,6S,12Z,13aS,14aR,16aS)-5′-ethyl-9′-methoxy-N-[(1-methylcyclopropyl)sulfonyl]-5,16-dioxo-6-[(1H-pyrazol-3-ylcarbonyl)amino]-1,1′,2′,6,7,8,9,10,11,13a,14,15,16,16a-tetradecahydrospiro[cyclopropa[e]pyrrolo[1,2-a][1,4]diazacyclopentadecine-2,3′-pyrano[2,3-c]quinoline]-14a(5H)-carboxamide]", "values": [{"measurement": "EC50", "setting": "HCV genotype 1b replicon; HCV replicon, genotype 1b", "value": 48.8, "unit": "nM"}, {"measurement": "IC50", "setting": "[1]; [4]", "value": 0.016, "unit": "nM"}]}
{"compound": "Cc1nc2cc(Cl)ccc2c2c1O[C@]1(CC2)C[C@H]2C(=O)N[C@]3(C(=O)NS(=O)(=O)C4(C)CC4)C[C@H]3/C=C\\CCCCC[C@H](NC(=O)OC(C)(C)C)C(=O)N2C1", "note": "[Example 233, tert-butyl [(2R,6S,12Z,13aS,14aR,16aS)-8′-chloro-5′-methyl-14a-{[(1-methylcyclopropyl)sulfonyl]carbamoyl}-5,16-dioxo-1,1′,2′,5,6,7,8,9,10,11,13a,14,14a,15,16,16a-hexadecahydrospiro[cyclopropa[e]pyrrolo[1,2-a][1,4]diazacyclopentadecine-2,3′-pyrano[2,3-c]quinolin]-6-yl]carbamate]", "values": [{"measurement": "EC50", "setting": "HCV genotype 1b replicon; genotype 1b replicon", "value": 1.51, "unit": "nM"}, {"measurement": "IC50", "setting": "[1]; [2]", "value": 0.051, "unit": "nM"}]}
